Among the data in US20220009914A1, “Analogs of Nitrofuran Antibiotics to Combat Resistance” (The Trustees of Indiana University, priority 2020, published 2022) are IC50 values, retold here.

The structures appear in SMILES notation. Where two headings read alike, the source gives them in different places. Bounds are passed on as bounds.

For assay [1], the target named is T1, native rhodanese (Bos taurus, UniProt P00586).
T1 sequence (P00586 1-297): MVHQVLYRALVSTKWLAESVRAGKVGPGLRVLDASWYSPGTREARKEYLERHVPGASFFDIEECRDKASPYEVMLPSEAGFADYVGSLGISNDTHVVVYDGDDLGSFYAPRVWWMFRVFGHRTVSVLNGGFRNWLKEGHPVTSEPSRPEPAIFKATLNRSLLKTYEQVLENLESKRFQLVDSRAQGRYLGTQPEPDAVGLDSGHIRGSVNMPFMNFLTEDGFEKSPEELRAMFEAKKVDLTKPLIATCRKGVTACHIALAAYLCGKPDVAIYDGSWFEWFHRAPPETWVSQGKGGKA
Description: native rhodanese enzymatic activity counter-screen. It counts as biochemical. On the procedure:
Counter-screening compounds for inhibition of native rhodanese enzymatic activity. Reagent Preparations & Assay Protocol: Reagents were identical to those used in the GroEL/ES-dRho refolding assay described above; however, the assay protocol differed in the sequence of compound addition to the wells. Compounds were pin-transferred after 50 minute incubation for the refolding cycle, but prior to the addition of the thiocyanate enzymatic assay stock. Thus, the refolding reactions were allowed to proceed for 50 min at 37° C. in the absence of test compounds, but the enzymatic activity of the refolded rhodanese reporter enzyme was monitored in the presence of test compounds (inhibitor concentration range during the enzymatic reporter reaction is 100 μM to 46 nM—3-fold dilutions). IC50 values for the rhodanese reporter enzyme were determined as described above. Results presented represent the averages of IC50 values obtained from at least four replicates.
All compounds were counter-screened for inhibiting the enzymatic activity of the native Rho reporter enzyme as per our previously reported procedure. Results presented represent the averages of IC50 values obtained from at least four replicates.

The target of assay [2] is T2, E. coli GroEL/ES (Escherichia coli, UniProt P0A6F5).
T2 construct: made in house; host or cells: GroEL in NEB 5-alpha E. coli; GroES in E. coli BL21 (DE3)
Description: GroEL/ES-mediated dMDH refolding assay. Format: biochemical. On the procedure: Evaluating compounds for inhibition in the GroEL/ES-mediated dMDH refolding assay. All compounds were evaluated for inhibiting E. coli GroEL/ES-mediated refolding of the denatured MDH reporter enzyme. Reagent preparation: For these assays, four primary reagent stocks were prepared: 1) GroEL/ES-dMDH binary complex stock; 2) ATP initiation stock; 3) EDTA quench stock; 4) MDH enzymatic assay stock. Denatured MDH (dMDH) was prepared by 2-fold dilution of MDH (5 mg/ml, soluble pig heart MDH from Roche, product #10127248001) with denaturant buffer (7 M guanidine-HCl, 200 mM Tris, pH 7.4, and 50 mM DTT). MDH was completely denatured by incubating at room temperature for >45 min. The binary complex solutions were prepared by slowly adding the dMDH stock to a stirring stock with GroEL and GroES in folding buffer (50 mM Tris-HCl, pH 7.4, 50 mM KCl, 10 mM MgC2, and 1 mM DTT). […] For the ATP initiation stock, ATP solid was diluted into folding buffer to a final concentration of 2.5 mM. Quench solution contained 600 mM EDTA (pH 8.0). The MDH enzymatic assay stock consisted of 20 mM sodium mesoxalate and 1.6 mM NADH in reaction buffer (50 mM Tris-HCl, pH 7.4, 50 mM KCl, and 1 mM DTT).
Assay Protocol: First, 30 μL aliquots of the GroEL/ES-dMDH binary complex stocks were dispensed into clear, 384-well polystyrene plates. […] The chaperonin-mediated refolding cycles were initiated by addition of 20 μL of ATP stock (reagent concentrations during refolding cycle: 50 nM GroEL, 60 nM GroES, 12 nM dMDH, 1 mM ATP, and compounds of 100 μM to 46 nM, 3-fold dilution series) and the refolding reactions were incubated at 37° C. […] Next, the assay was quenched by addition of 10 μL of the EDTA stock to give a final concentration of 100 mM in the wells. […] A340 nm measurements were recorded at 0.5 minutes (start point) and at successive time points until the amount of NADH consumed reached ˜90% (end point, generally between 20-35 minutes).
Evaluating analogs for inhibiting GroEL/ES-mediated substrate refolding functions. […] We first evaluated all test compounds in our standard GroEL/ES-mediated refolding assays that employ either malate dehydrogenase (MDH) or rhodanese (Rho) as the denatured substrate reporter enzymes. When denatured, these enzymes are efficiently folded by GroEL/ES in the absence of inhibitors, and thus act as reporters to determine the degree of inhibition against the bacterial chaperonin system. Inhibition was examined in the presence of these two orthogonal substrates in order to support that GroEL/ES inhibitors were on-target. To further support on-target effects against GroEL/ES, we counter-screened for inhibition of the native MDH and Rho enzymatic reporter reactions, where test compounds were added after the denatured MDH and Rho substrate enzymes were completely refolded by GroEL/ES.

Setting [3] is: compounds added after refolding, read-out: Native Rho Activity IC50.

T2 sequence (P0A6F5 2-548): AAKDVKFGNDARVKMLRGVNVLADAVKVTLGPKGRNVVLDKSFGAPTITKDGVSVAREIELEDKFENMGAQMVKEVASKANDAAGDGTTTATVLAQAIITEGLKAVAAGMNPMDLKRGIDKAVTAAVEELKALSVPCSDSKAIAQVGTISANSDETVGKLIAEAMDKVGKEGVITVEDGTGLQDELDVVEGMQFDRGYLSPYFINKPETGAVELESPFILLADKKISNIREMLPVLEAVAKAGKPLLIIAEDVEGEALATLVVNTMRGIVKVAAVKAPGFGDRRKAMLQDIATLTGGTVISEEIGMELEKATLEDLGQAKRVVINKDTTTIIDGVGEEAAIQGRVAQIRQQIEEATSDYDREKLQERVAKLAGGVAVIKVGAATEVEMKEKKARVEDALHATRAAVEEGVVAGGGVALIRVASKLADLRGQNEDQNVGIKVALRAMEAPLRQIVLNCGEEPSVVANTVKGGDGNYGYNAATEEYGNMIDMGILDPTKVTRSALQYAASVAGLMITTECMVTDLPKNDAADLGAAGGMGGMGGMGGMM

Take `O=C(N/N=C/c1ccc(O)c2ncccc12)c1cccc(Oc2ccccc2)c1` [Compound 11, N′-((8-hydroxyquinolin-5-yl)methylene)-3-phenoxybenzohydrazide]: the IC50 is 85 µM in assay [1] (setting [3]) and 13 µM in assay [2].
For `COc1ccc(C(=O)N/N=C/c2ccc(O)c3ccccc23)cc1` [Compound 29, N′-((4-hydroxynaphthalen-1-yl)methylene)-4-methoxybenzohydrazide], in that order: 66 µM and above 100 µM.
The like results for `O=C(N/N=C/c1ccc(O)c2ncccc12)c1cccc2ccccc12` [Compound 9, N′-((8-hydroxyquinolin-5-yl)methylene)-1-naphthohydrazide] were, in that order, 97 µM and 13 µM.
For `COc1ccc(C(=O)N/N=C/c2ccco2)cc1` [Compound 39, N′-(furan-2-ylmethylene)-4-methoxybenzohydrazide], the IC50 in assay [1] (setting [3]) and in assay [2] was above 100 µM throughout.
With `CN(C)c1ccc(C(=O)N/N=C/c2ccc(O)c3ncccc23)cc1` [Compound 8, 4-(dimethylamino)-N′-((8-hydroxyquinolin-5-yl)methylene)benzohydrazide], the IC50 is 67 µM in assay [1] (setting [3]) and 27 µM in assay [2].
For `O=C(N/N=C/c1ccccc1)c1ccccc1` [Compound 38, N′-benzylidenebenzohydrazide], in that order: above 100 µM and above 100 µM.
For `O=C(N/N=C/c1ccc(O)c2ncccc12)c1cccs1` [Compound 3, N′-((8-hydroxyquinolin-5-yl)methylene)thiophene-2-carbohydrazide], in that order: 87 µM and 65 µM.
In the case of `CCOc1ccc(S(=O)(=O)Nc2ccc(C(=O)N/N=C/c3ccc([N+](=O)[O-])o3)cc2)cc1` [Compound 28, 4-ethoxy-N-(4-(2-((5-nitrofuran-2-yl)methylene)hydrazine-1-carbonyl)phenyl)benzenesulfonamide], the IC50 in assay [1] (setting [3]) was 45 µM; in assay [2] it was 36 µM.
For `O=C(N/N=C/c1ccc([N+](=O)[O-])o1)c1cccc(Oc2ccccc2)c1` [Compound 24, N′-((5-nitrofuran-2-yl)methylene)-3-phenoxybenzohydrazide], in that order: 65 µM and 71 µM.
On to `O=C(N/N=C/c1ccc([N+](=O)[O-])o1)c1ccc(Cl)s1` [Compound 17, 5-chloro-N′-((5-nitrofuran-2-yl)methylene)thiophene-2-carbohydrazide], for which the IC50 in assay [1] (setting [3]) came out at 56 µM; in assay [2] (without NfsB nitroreductase, read-out: GroEL/ES-dMDH Refolding IC50), 88 µM.
Take `O=C(N/N=C/c1ccc(O)c2ncccc12)c1ccc(NS(=O)(=O)c2ccc(Br)cc2)cc1` [Compound 14, 4-bromo-N-(4-(2-((8-hydroxyquinolin-5-yl)methylene)hydrazine-1-carbonyl)phenyl)benzenesulfonamide]: the IC50 is above 100 µM in assay [1] (setting [3]) and 14 µM in assay [2].
The like results for `COc1ccc(C(=O)N/N=C/c2ccccc2)cc1` [Compound 37, N′-benzylidene-4-methoxybenzohydrazide] were, in that order, above 100 µM and above 100 µM.
Consider `O=C(N/N=C/c1cccc2ccccc12)c1ccccc1` [Compound 34, N′-(naphthalen-1-ylmethylene)benzohydrazide], for which the IC50 in assay [1] (setting [3]) and in assay [2] was above 100 µM throughout.
Regarding `O=C(N/N=C/c1ccc([N+](=O)[O-])o1)c1ccc(NS(=O)(=O)c2ccc(Br)cc2)cc1` [Compound 27, 4-bromo-N-(4-(2-((5-nitrofuran-2-yl)methylene)hydrazine-1-carbonyl)phenyl)benzenesulfonamide], the IC50 worked out at 44 µM in assay [1] and 36 µM in assay [2].
For `CCN(CC)S(=O)(=O)c1cccc(C(=O)N/N=C/c2ccc(O)c3ncccc23)c1` [Compound 12, N,N-diethyl-3-(2-((8-hydroxyquinolin-5-yl)methylene)hydrazine-1-carbonyl)benzenesulfonamide], the IC50 in assay [1] (setting [3]) was found to be 81 µM; in assay [2], 19 µM.
The like results for `O=Cc1ccc([N+](=O)[O-])o1` [Compound 41, reference compound] were, in that order, 32 µM and 78 µM.
